Data from PMC4487512 (Biochemical pharmacology, 2009).
Marks after values point to notes of the source that are not given here.

Legend:
[1] = system: cryopreserved human hepatocytes; details: for Depletion of the parent compound, HμREL device: human hepatocytes under flow, at 24 h; for HμREL clearance CLhurel: flow 4.5 μL/min/chip, 30,000 hepatocytes per chamber, 100 μL
[2] = human, known in vivo clearance values; ref literature (citation not given); cited from earlier work
[3] = system: cryopreserved human hepatocytes; details: at 24 h

Row | Structure (SMILES) | Depletion of the parent compound, HμREL device [1] | In vivo clearance [2] [L/h/kg] | Depletion of the parent compound, static culture system [3] | HμREL clearance CLhurel [1]
1 | NC(=O)N1c2ccccc2C=Cc2ccccc21 [Carbamazepine, carbamazepine] | did not show significant depletion | 0.078 ± 0.03 | did not show significant depletion | 
2 | CCCc1nn(C)c2c(=O)[nH]c(-c3cc(S(=O)(=O)N4CCN(C)CC4)ccc3OCC)nc12 [Sildenafil, sildenafil] |  | 0.36 ± 0.066 |  | 1.13 μL/min/chip
3 | CC(C)(C)NC[C@H](O)COc1nsnc1N1CCOCC1 [Timolol, timolol] |  | 0.462 ± 0.072 |  | 0.35 μL/min/chip
4 | O=C1CC2(CCCC2)CC(=O)N1CCCCN1CCN(c2ncccn2)CC1 [Buspirone, buspirone] |  |  |  | 3.13 μL/min/chip
5 | Cn1c(=O)c2c(ncn2C)n(C)c1=O [Caffeine, caffeine] | did not show significant depletion |  | did not show significant depletion | 0.01^a μL/min/chip
